What was measured:
DYRK1A kinase = DYRK1A kinase (Homo sapiens (Human), UniProt Q13627); test: DYRK1A kinase assay (Ser/Thr 18 peptide Z-lyte FRET); format: biochemical; conditions: read-out: EC50 (method: IC50)
Method: Representative compounds were screened using the assay procedure for DYRK1A kinase activity as described below.
This is a non-radioactive assay using fluorescence resonance energy transfer (FRET) between coumarin and fluorescein to detect kinase activity which is represented as a ratio of coumarin emission/fluorescein emission.
The mixture was allowed to incubate with the representative compounds for one hour at room temperature. All reactions were performed in duplicate. Unphosphorylated (“0% Control”) and phosphorylated (“100% control”) forms of Ser/Thr 18 served as control reactions. Additionally, an 11-point dose-response curve of Staurosporine (1 uM top) was run to serve as a positive compound control.
After incubation, Development Reagent A was diluted in Development Buffer then added to the reaction and allowed to further incubate for one hour at room temperature.

[1] = tested on: SW480 colon carcinoma cells; test: Cell viability assay (CellTiter-Glo) in SW480 colon carcinoma cells; format: cell-based, human; conditions: Homo sapiens, 96 h, four days
Method: Representative compounds were screened using the assay procedure to assess the effect on cell viability as described below.
SW480 colon carcinoma cells were transduced with a lentiviral vector expressing luciferase with a human Sp5 promoter consisting of a sequence of eight TCF/LEF binding sites. SW480 cells stably expressing the Sp5-Luc reporter gene and a hygromycin resistance gene were selected by treatment with 150 μg/mL of hygromycin for 7 days. These stably transduced SW480 cells were expanded in cell culture and used for all further screening activities.
For the Cell Viability Assays, the cells were plated at 2,000 cells/well in 384-well plates with a DMEM medium containing 1% fetal bovine serum, and 1% Penicillin-Streptomycin and incubated for […] at 37° C. and 5% CO2. Eight replicates of DMSO-treated cells served as controls and cells treated with compound were performed in duplicate.
After incubation, 10 μL of CellTiter-Glo (Promega) was added to each well allowed to incubate for approximately 12 minutes. This reagent “results in cell lysis and generation of a luminescent signal proportional to the amount of ATP present. The amount of ATP is directly proportional to the number of cells present in culture, in agreement with previous reports. The CellTiter-Glo® Assay generates a “glow-type” luminescent signal, produced by the luciferase reaction (Promega.com)”.

[2] = tested on: primary human fibroblasts derived from IPF patients (LL29 cells); test: Inhibition of the fibrotic process: αSMA staining in TGF-β1 treated LL29 fibroblasts; format: cell-based; conditions: Homo sapiens, Fibroblast, 96 h; LL29 cells, TGF-β1 20 ng/mL, 4 days, % αSMA positive cells
Method: Representative compounds were screened using primary human fibroblasts (derived from IPF patients) treated with TGF-β1 to determine their ability to inhibit the fibrotic process.
LL29 cells were plated at 1,500 cells/well in 70 μL/well F12 medium supplemented with 1% Fetal Bovine Serum. […] Wells treated with TGF-β1 and containing DMSO were used as positive control, and cells with only DMSO were negative control. […] Following incubation for 4 days, SYTOX green nucleic acid stain (Life Technologies [Thermo Fisher Scientific]) was added to the wells at a final concentration of 1 μM and incubated at room temperature for 30 min.

[3] = tested on: Wnt activity (Sp5-Luc reporter in SW480 cells); test: Screening assay for Wnt activity: Sp5-Luc reporter gene assay in SW480 colon carcinoma cells; format: cell-based, human; conditions: Homo sapiens, 36 to 48 hours
Source text: The screening assay for Wnt activity is described as follows. Reporter cell lines can be generated by stably transducing cancer cell lines (e.g., colon cancer) or primary cells (e.g., IEC-6 intestinal cells) with a lentiviral construct that includes a Wnt-responsive promoter driving expression of the firefly luciferase gene.
SW480 colon carcinoma cells were transduced with a lentiviral vector expressing luciferase with a human Sp5 promoter consisting of a sequence of eight TCF/LEF binding sites. SW480 cells stably expressing the Sp5-Luc reporter gene and a hygromycin resistance gene were selected by treatment with 150 μg/mL of hygromycin for 7 days. These stably transduced SW480 cells were expanded in cell culture and used for all further screening activities. […] For Sp5-Luc reporter gene assays, the cells were plated at 4,000 cells/well in 384-well plates with a DMEM medium containing 1% fetal bovine serum, and 1% Penicillin-Streptomycin and incubated for 36 to 48 hours at 37° C. and 5% CO2. Following incubation, 15 μl of BriteLite Plus luminescence reagent (Perkin Elmer) was added to each well of the 384-well assay plates. The plates were placed on an orbital shaker for 2 min and then luminescence was quantified using the Envision (Perkin Elmer) plate reader. Readings were normalized to DMSO only treated cells, and normalized activities were utilized for EC50 calculations using the dose-response log (inhibitor) vs. response-variable slope (four parameters) nonlinear regression feature available in GraphPad Prism 5.0 (or Dotmatics).

IL-6 = IL-6 inhibition in LPS-stimulated human peripheral blood mononuclear cells (HTRF); format: cell-based; conditions: Homo sapiens, PBMC; for EC50: huPBMCs, LPS 50 ng/mL, 22 hours, IL-6 HTRF; for inhibition at 10 µM: read-out: percent inhibition at 10 μM
Method: Fresh Normal PB MNC (Catalog #PB001, AllCells, Alameda, Calif.) were shipped overnight at 4° C. and resuspended in Roswell Park Memorial Institute (RPMI) 1640 Medium, with GlutaMAX Supplement (Catalog #61870127, ThermoFisher Scientific, Waltham, Mass.) supplemented with 1% Penicillin-Streptomycin (Catalog #15140163. ThermoFisher Scientific, Waltham, Mass.) and 1% fetal bovine serum (FBS) (Catalog #16140089, ThermoFisher Scientific, Waltham, Mass.) assay media. Fresh normal human peripheral blood mononuclear cells (huPBMCs) were resuspended in 1% FBS-RPMI assay media with 1% Penicillin-Streptomycin 1% to a cell concentration of 1×10e6 cells/mL. […] 50 ng/mL of Lipopolysaccharides from Escherichia coli 0111:B4 (Catalog #L5293-2ML, Sigma-Aldrich, St. Louis, Mo.) was added after 2 hours and cells were incubated for another 22 hours at 37° C.-5% CO2. After 22 hour incubation, a mixture of anti-IL6 XL665 and anti-IL-6 Cryptate diluted in reconstitution buffer (Catalog #62IL6PEC, Cisbio Inc., Bedford, Mass.) was added to each well. Following incubation for 3 hours at room temperature, Homogeneous Time-Resolved Fluorescence (HTRF) was measured using the Envision (Perkin Elmer, Shelton, Conn.) at 665 nm and […]. The ratio of fluorescence at 665 nm to 620 nm was used as a readout for IL-6 quantification. All samples were processed in duplicate. Readings were normalized to DMSO treated cells and normalized activities were utilized for EC50 calculations.

GSK3β kinase = GSK3β kinase (Homo sapiens (Human), UniProt P49841); test: GSK3β kinase assay (Ser/Thr 09 peptide Z-lyte FRET); format: biochemical; conditions: read-out: EC50 (method: IC50)
Sequence of GSK3β kinase (P49841 whole entry): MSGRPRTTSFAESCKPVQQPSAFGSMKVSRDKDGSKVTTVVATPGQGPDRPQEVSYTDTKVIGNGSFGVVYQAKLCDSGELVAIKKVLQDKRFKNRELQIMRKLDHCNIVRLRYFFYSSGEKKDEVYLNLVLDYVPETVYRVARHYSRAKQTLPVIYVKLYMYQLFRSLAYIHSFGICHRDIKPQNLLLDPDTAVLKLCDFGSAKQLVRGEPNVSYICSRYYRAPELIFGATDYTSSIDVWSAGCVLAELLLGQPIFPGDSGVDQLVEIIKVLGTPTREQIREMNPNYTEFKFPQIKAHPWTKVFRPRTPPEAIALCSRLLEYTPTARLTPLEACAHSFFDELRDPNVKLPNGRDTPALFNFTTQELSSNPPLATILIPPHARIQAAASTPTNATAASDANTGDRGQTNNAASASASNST
Method: Representative compounds were screened using the assay procedure for GSK3β kinase activity as described below.
This is a non-radioactive assay using fluorescence resonance energy transfer (FRET) between coumarin and fluorescein to detect kinase activity which is represented as ratio of coumarin emission/fluorescein emission.
The mixture is allowed to incubate with the representative compounds for one hour at room temperature. All reactions were performed in duplicate. Unphosphorylated (“0% Control”) and phosphorylated (“100% control”) forms of Ser/Thr 18 serve as control reactions.
After incubation, diluted Development Buffer is added to the reaction and allowed to further incubate for one hour at room temperature.
Dose-response curves are generated and inhibitory concentration (IC50) values are calculated using non-linear regression curve fit in the Dotmatics' Studies Software (Bishops Stortford, UK).

Cn1cc(-c2cc3c(C(=O)NC4CCC(F)(F)CC4)n[nH]c3cc2F)cn1 [Compound 15, N-(4,4-Difluorocyclohexyl)-6-fluoro-5-(1-methyl-1H-pyrazol-4-yl)-1H-indazole-3-carboxamide] was tested, and the IC50 (DYRK1A kinase) was 36 nM, the EC50 [1] was 2600 nM and the EC50 [2] was 3320 nM. It also gave an EC50 [3] greater than 10000 nM, an EC50 (IL-6) of 3550 nM and an IC50 (GSK3β kinase) of 58 nM.
With CCn1cc(-c2ccc3[nH]nc(C(=O)NC4CCC(F)(F)CC4)c3c2)cn1 [Compound 18, N-(4,4-Difluorocyclohexyl)-5-(1-ethyl-1H-pyrazol-4-yl)-1H-indazole-3-carboxamide] the IC50 (DYRK1A kinase) was 121 nM, the EC50 [1] was 7460 nM and the EC50 [2] was 950 nM. It also gave an EC50 [3] of 801 nM, an EC50 (IL-6) of 3820 nM and an IC50 (GSK3β kinase) of 60 nM.
Compound O=C(NC1CCC(F)(F)CC1)c1n[nH]c2ccc(-c3cnn(C4CC4)c3)cc12 [Compound 19, 5-(1-Cyclopropyl-1H-pyrazol-4-yl)-N-(4,4-difluorocyclohexyl)-1H-indazole-3-carboxamide] has an IC50 (DYRK1A kinase) of 117 nM, an EC50 [1] of 3070 nM and an EC50 [2] of 1180 nM. It also gave an EC50 [3] of 1050 nM, an EC50 (IL-6) of 3680 nM and an IC50 (GSK3β kinase) of 64 nM.
Compound Cc1c(-c2ccc3[nH]nc(C(=O)NC4CCC(F)(F)CC4)c3c2)cnn1C [Compound 20, N-(4,4-Difluorocyclohexyl)-5-(1,5-dimethyl-1H-pyrazol-4-yl)-1H-indazole-3-carboxamide] has an IC50 (DYRK1A kinase) of 13 nM, an EC50 [1] greater than 10000 nM and an EC50 [2] of 3410 nM. It also gave an EC50 [3] greater than 10000 nM, an EC50 (IL-6) greater than 10000 nM and an inhibition at 10 µM (IL-6) of 36.4%. For the same compound, the IC50 (GSK3β kinase) was 21 nM.
For Cc1nn(C)cc1-c1ccc2[nH]nc(C(=O)NC3CCC(F)(F)CC3)c2c1 [Compound 21, N-(4,4-Difluorocyclohexyl)-5-(1,3-dimethyl-1H-pyrazol-4-yl)-1H-indazole-3-carboxamide], the IC50 (DYRK1A kinase) was 1820 nM, the EC50 [1] was greater than 10000 nM and the EC50 [2] was 294 nM. For the same compound, the EC50 [3] was greater than 10000 nM, the EC50 (IL-6) was greater than 10000 nM and the inhibition at 10 µM (IL-6) was 15.5%. It also gave an IC50 (GSK3β kinase) of 903 nM.
Cc1ncc(-c2ccc3[nH]nc(C(=O)NC4CCC(F)(F)CC4)c3c2)n1C [Compound 22, N-(4,4-Difluorocyclohexyl)-5-(1,2-dimethyl-1H-imidazol-5-yl)-1H-indazole-3-carboxamide] was tested, and the IC50 (DYRK1A kinase) was 25 nM, the EC50 [1] was greater than 10000 nM and the EC50 [2] was 2200 nM. For the same compound, the EC50 [3] was 2010 nM, the EC50 (IL-6) was greater than 10000 nM and the inhibition at 10 µM (IL-6) was 10.2%. The IC50 (GSK3β kinase) was 61 nM.
Cn1cc(-c2ccc3[nH]nc(C(=O)N[C@H]4CC[C@H](CN5CC(F)C5)CC4)c3c2)cn1 [Compound 23, N-((1R,4R)-4-((3-Fluoroazetidin-1-yl)methyl)cyclohexyl)-5-(1-methyl-1H-pyrazol-4-yl)-1H-indazole-3-carboxamide] showed an IC50 (DYRK1A kinase) of 1 nM, an EC50 [1] of 409 nM and an EC50 [2] of 149 nM. For the same compound, the EC50 [3] was 768 nM, the EC50 (IL-6) was 345 nM and the IC50 (GSK3β kinase) was 5 nM.
Compound Cn1cc(-c2cc3c(C(=O)N[C@H]4CC[C@H](CN5CC(F)C5)CC4)n[nH]c3cc2F)cn1 [Compound 24, 6-fluoro-N-((1R,4R)-4-((3-fluoroazetidin-1-yl)methyl)cyclohexyl)-5-(1-methyl-1H-pyrazol-4-yl)-1H-indazole-3-carboxamide] has an IC50 (DYRK1A kinase) of 2 nM, an EC50 [1] of 829 nM and an EC50 [2] of 125 nM. The EC50 [3] was 1340 nM, the EC50 (IL-6) was 419 nM and the IC50 (GSK3β kinase) was 22 nM.
O=C(N[C@H]1CC[C@H](CN2CC(F)C2)CC1)c1n[nH]c2ccc(-c3cnn(C4CC4)c3)cc12 [Compound 26, 5-(1-Cyclopropyl-1H-pyrazol-4-yl)-N-((1R,4R)-4-((3-fluoroazetidin-1-yl)methyl)cyclohexyl)-1H-indazole-3-carboxamide] was tested, and the IC50 (DYRK1A kinase) was 5 nM, the EC50 [1] was 849 nM and the EC50 [2] was greater than 10000 nM. The EC50 [3] was 1180 nM, the EC50 (IL-6) was 1040 nM and the IC50 (GSK3β kinase) was 34 nM.
Compound O=C(N[C@H]1CC[C@H](CN2CC(F)C2)CC1)c1n[nH]c2ccc(-c3cnn4c3CCCC4)cc12 [Compound 27, N-((1R,4R)-4-((3-Fluoroazetidin-1-yl)methyl)cyclohexyl)-5-(4,5,6,7-tetrahydropyrazolo[1,5-a]pyridin-3-yl)-1H-indazole-3-carboxamide] has an IC50 (DYRK1A kinase) of 4 nM, an EC50 [1] of 6450 nM and an EC50 [2] of 346 nM. For the same compound, the EC50 [3] was 677 nM, the EC50 (IL-6) was 3820 nM and the IC50 (GSK3β kinase) was 12 nM.
Cn1cc(-c2ccc3[nH]nc(C(=O)N[C@H]4CC[C@H](CN5CCCC5)CC4)c3c2)cn1 [Compound 28, 5-(1-Methyl-1H-pyrazol-4-yl)-N-((1R,4R)-4-(pyrrolidin-1-ylmethyl)cyclohexyl)-1H-indazole-3-carboxamide] gave an IC50 (DYRK1A kinase) of 2 nM, an EC50 [1] of 442 nM and an EC50 [2] of 409 nM. It also gave an EC50 [3] of 688 nM, an EC50 (IL-6) of 401 nM and an IC50 (GSK3β kinase) of 11 nM.
CC(C)CN1CC[C@@H](NC(=O)c2n[nH]c3ccc(-c4cnn(C)c4)cc23)[C@@H](F)C1 [Compound 31, N-((3S,4R)-3-Fluoro-1-isobutylpiperidin-4-yl)-5-(1-methyl-1H-pyrazol-4-yl)-1H-indazole-3-carboxamide] was tested, and the IC50 (DYRK1A kinase) was 26 nM, the EC50 [1] was greater than 10000 nM and the EC50 [2] was 2460 nM. The EC50 [3] was 610 nM, the EC50 (IL-6) was 4260 nM and the IC50 (GSK3β kinase) was 55 nM.
For CC(C)CN1CC[C@@H](NC(=O)c2n[nH]c3ccc(-c4cnn(C)c4)cc23)[C@H](F)C1 [Compound 32, N-((3R,4R)-3-Fluoro-1-isobutylpiperidin-4-yl)-5-(1-methyl-1H-pyrazol-4-yl)-1H-indazole-3-carboxamide], the IC50 (DYRK1A kinase) was 5 nM, the EC50 [1] was 1320 nM and the EC50 [2] was 372 nM. It also gave an EC50 [3] of 1830 nM, an EC50 (IL-6) of 1270 nM and an IC50 (GSK3β kinase) of 31 nM.

Source: patent US10934297B2, “5-heteroaryl substituted indazole-3-carboxamides and preparation and use thereof” (Samumed, LLC, priority 2018, dated 2021)
